# Test results reported in PubChem BioAssay (NCI).
#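 Results reflect a 48-hour exposure of cells in 96-well plates to compound at five concentrations. Here, GI50 denotes the concentration required for 50% inhibition of growth. TGI is the concentration that stops growth completely.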
# Experiments:
# Test in all cases: growth of human tumour cells (NCI), 48 h
# [1] = test system: 786-0 renal
# [2] = test system: A498 renal
# [3] = test system: A549 NSCLC
# [4] = test system: ACHN renal
# [5] = test system: BT-549 breast
# [6] = test system: CAKI-1 renal
# [7] = test system: CCRF-CEM leukemia
# [8] = test system: COLO 205 colon
# [9] = test system: DU-145 prostate
# [10] = test system: EKVX NSCLC
# [11] = test system: HCC-2998 colon
# [12] = test system: HCT-116 colon
# [13] = test system: HCT-15 colon
# [14] = test system: HL-60(TB) leukemia
# [15] = test system: HOP-62 NSCLC
# [16] = test system: HOP-92 NSCLC
# [17] = test system: HS 578T breast
# [18] = test system: HT29 colon
# [19] = test system: IGROV1 ovarian
# [20] = test system: K-562 leukemia
# [21] = test system: KM12 colon
# [22] = test system: LOX IMVI melanoma
# [23] = test system: M14 melanoma
# [24] = test system: MALME-3M melanoma
# [25] = test system: MCF7 breast
# [26] = test system: MDA-MB-231 breast
# [27] = test system: MDA-MB-435
# [28] = test system: MOLT-4 leukemia
# [29] = test system: NCI-H226 lung
# [30] = test system: NCI-H23 lung
# [31] = test system: NCI-H460 lung
# [32] = test system: NCI-H522 lung
# [33] = test system: NCI/ADR-RES ovarian
# [34] = test system: OVCAR-3 ovarian
# [35] = test system: OVCAR-4 ovarian
# [36] = test system: OVCAR-5 ovarian
# [37] = test system: OVCAR-8 ovarian
# [38] = test system: PC-3 prostate
# [39] = test system: RPMI-8226 leukemia
# [40] = test system: RXF 393 renal
# [41] = test system: SF-268 CNS
# [42] = test system: SF-295 CNS
# [43] = test system: SF-539 CNS
# [44] = test system: SK-MEL-2 melanoma
# [45] = test system: SK-MEL-28 melanoma
# [46] = test system: SK-MEL-5 melanoma
# [47] = test system: SK-OV-3 ovarian
# [48] = test system: SN12C renal
# [49] = test system: SNB-19 CNS
# [50] = test system: SNB-75 CNS
# [51] = test system: SR leukemia
# [52] = test system: SW-620 colon
# [53] = test system: T-47D breast
# [54] = test system: TK-10 renal
# [55] = test system: U251 CNS
# [56] = test system: UACC-257 melanoma
# [57] = test system: UACC-62 melanoma
# [58] = test system: UO-31 renal
compound,measurement,setting,value
COc1ccc(C(C)=C(c2ccc(OCCN3CCCCCC3)cc2)c2ccc(OCCN3CCCCCC3)cc2)cc1,GI50,[1],606 nM
same,TGI,[1],1550 nM
same,GI50,[2],2200 nM
same,TGI,[2],4.41 µM
same,GI50,[3],1230 nM
same,TGI,[3],3.85 µM
same,GI50,[4],2090 nM
same,TGI,[4],4.37 µM
same,GI50,[5],2030 nM
same,TGI,[5],4.21 µM
same,GI50,[6],1390 nM
same,TGI,[6],3.73 µM
same,GI50,[7],503 nM
same,TGI,[7],4.32 µM
same,GI50,[8],375 nM
same,TGI,[8],948 nM
same,GI50,[9],2280 nM
same,TGI,[9],5.73 µM
same,GI50,[10],2340 nM
same,TGI,[10],7.2 µM
same,GI50,[11],540 nM
same,TGI,[11],2000 nM
same,GI50,[12],369 nM
same,TGI,[12],1110 nM
same,GI50,[13],488 nM
same,TGI,[13],1970 nM
same,GI50,[14],1020 nM
same,TGI,[14],2320 nM
same,GI50,[15],1070 nM
same,TGI,[15],3.49 µM
same,GI50,[16],843 nM
same,TGI,[16],3.89 µM
same,GI50,[17],1120 nM
same,TGI,[17],4.56 µM
same,GI50,[18],545 nM
same,TGI,[18],2100 nM
same,GI50,[19],1870 nM
same,TGI,[19],4.28 µM
same,GI50,[20],338 nM
same,TGI,[20],825 nM
same,GI50,[21],1220 nM
same,TGI,[21],4.01 µM
same,GI50,[22],177 nM
same,TGI,[22],427 nM
same,GI50,[23],270 nM
same,TGI,[23],515 nM
same,GI50,[24],300 nM
same,TGI,[24],616 nM
same,GI50,[25],177 nM
same,TGI,[25],579 nM
same,GI50,[26],1360 nM
same,TGI,[26],3.95 µM
same,GI50,[27],422 nM
same,TGI,[27],1170 nM
same,GI50,[28],436 nM
same,TGI,[28],1290 nM
same,GI50,[29],2320 nM
same,TGI,[29],5.33 µM
same,GI50,[30],2670 nM
same,TGI,[30],9.52 µM
same,GI50,[31],635 nM
same,TGI,[31],2180 nM
same,GI50,[32],2650 nM
same,TGI,[32],6.1 µM
same,GI50,[33],2070 nM
same,TGI,[33],4.55 µM
same,GI50,[34],1870 nM
same,TGI,[34],4.07 µM
same,GI50,[35],2430 nM
same,TGI,[35],5.9 µM
same,GI50,[36],2440 nM
same,TGI,[36],8.26 µM
same,GI50,[37],2620 nM
same,TGI,[37],6.82 µM
same,GI50,[38],1720 nM
same,TGI,[38],4.82 µM
same,GI50,[39],443 nM
same,TGI,[39],1090 nM
same,GI50,[40],646 nM
same,TGI,[40],2560 nM
same,GI50,[41],1710 nM
same,TGI,[41],5.07 µM
same,GI50,[42],447 nM
same,TGI,[42],1310 nM
same,GI50,[43],1020 nM
same,TGI,[43],2990 nM
same,GI50,[44],2950 nM
same,TGI,[44],6.34 µM
same,GI50,[45],312 nM
same,TGI,[45],593 nM
same,GI50,[46],1310 nM
same,TGI,[46],3.47 µM
same,GI50,[47],2550 nM
same,TGI,[47],5.23 µM
same,GI50,[48],2090 nM
same,TGI,[48],4.8 µM
same,GI50,[49],1360 nM
same,TGI,[49],4.02 µM
same,GI50,[50],2060 nM
same,TGI,[50],5.23 µM
same,GI50,[51],306 nM
same,TGI,[51],773 nM
same,GI50,[52],450 nM
same,TGI,[52],1480 nM
same,GI50,[53],628 nM
same,TGI,[53],4.55 µM
same,GI50,[54],3.12 µM
same,TGI,[54],6.73 µM
same,GI50,[55],524 nM
same,TGI,[55],1830 nM
same,GI50,[56],587 nM
same,TGI,[56],1590 nM
same,GI50,[57],869 nM
same,TGI,[57],2050 nM
same,GI50,[58],1780 nM
same,TGI,[58],3.97 µM
